Measurements: patent publication US9393316B2, “Cancer targeting peptides for enhancing anti-cancer drug delivery and therapeutic efficiencies” (priority 2014, dated 2016)

System: HCT116 xenografts
Assay: In vivo peptide competitive inhibition of phage tumor homing
Set-up: species or system mice
Conditions: co-injected with corresponding phage clone
Experimental: Non-obese diabetic-severe combined immunodeficiency (NOD/SCID) mice were injected subcutaneously (s.c.) into the dorsolateral flank with 5×10^6 HCT116 cells. When the xenograft tumor size reached 300±50 mm^3, the mice were injected intravascularly (i.v.) with 2×10^11 pfu of the targeting phage or control phage M13KO7. Seven min after injection, the mice were sacrificed and perfused through the heart with 50 mL of PBS to wash unbound phages. After perfusion, xenograft tumor and mouse organs were taken out, washed three times with cold PBS, and cut into pans, with some of them homogenized. The phages bound to each tissue sample were recovered by log-phase Escherichia coli ER2738 culture and were titered on LB/IPTG/X-Gal agar plates. In peptide competitive inhibition experiments, 2×10^9 pfu of phage was co-injected with 100 μg of corresponding peptide or an unrelated control peptide.
The tumor-homing ability of HCT63, HCT69 and HCT74 phages were further confirmed by peptide competitive inhibition experiment. Mice bearing HCT116 xenografts were co-injected with HCT63, HCT69 and HCT74 phages clones and the homologous cognate synthetic peptide; pHCT63, pHCT69 and pHCT74 peptides (SEQ ID NOs: 1-3, respectively), respectively.

SSMDIVLRAPLM (HCT-74) [pHCT74]
inhibition of phage recovery from tumor tissue by cognate peptide: markedly inhibited the recovery of phage particles from tumor tissue
